Results on one substance are retold here after patent US12441803B2, “Engineered CD25 polypeptides and uses thereof” (iBio, Inc., priority 2018, dated 2025).

In this assay the test system is alanine mutant versions of CD25. Briefly: Alanine mutagenesis functional epitope mapping. As to conditions: binding responses to alanine mutant versions of CD25.

Protocol: Alanine mutagenesis was selected as an orthogonal method for binning antibodies because it operates on the functional epitope, rather than the structural epitope defined by competition assays. Various pairs of surface-accessible residues were selected for mutagenesis.
Each of 117 scFv's from the screening campaign were tested against four alanine mutations pairs (FIG. 31).

For the substance basiliximab, the “Ala-mutant epitope mapping of control antibody” value was “Ala mutant binding responses corroborate crystal structure of the basiliximab epitope”.
